Reference: patent publication US20160108049A1 (TAKEDA Gmbh, priority 2011, published 2016)

Assays:
[1] = molecular target: T1, PDE4B1 (Homo sapiens, UniProt Q07343); assay: Inhibition of PDE4 activity (PDE4B1, SPA assay); format: biochemical; details: recombinant PDE4B1, 0.5 μM cAMP; read-out: PDE4B1 Inhibitory values measured as -logIC50 (converted)
T1 construct: made in house; host or cells: SF21 insect cells (baculovirus; virus made in SF9 cells, pCR-Bac vector)
Method in brief: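 Read-out is SPA yttrium silicate bead scintillation after IBMX-containing beads stop the reaction. Insect-cell (SF21) lysate enzyme hydrolysed 0.5 μM [3H]cAMP at pH 7.4 with 5 mM Mg2+ for 15 min after a 5 min 37 °C preincubation; IC50 fitted by non-linear regression.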

[2] = molecular target: T2, human PDE5 (Homo sapiens, UniProt O76074); assay: Inhibition of PDE5 activity (platelet lysate, SPA assay); format: biochemical; details: 0.5 μM cGMP, read-out: PDE5 Inhibitory values measured as -logIC50 (converted)
T2 construct: from tissue; host or cells: human platelets from fresh donor blood (platelet lysate)
Method in brief: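 SPA readout of [3H]cGMP hydrolysis (0.5 μM, 15 min, 37 °C after 5 min preincubation), stopped with yttrium silicate beads containing IBMX. Enzyme was lysate from human platelets, used at 10–20% substrate turnover, with PDE3 (motapizone 1 μM) and PDE2 (10 nM) blockers present. IC50 values fitted non-linearly from concentration-effect curves.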

T1 sequence (Q07343 whole entry): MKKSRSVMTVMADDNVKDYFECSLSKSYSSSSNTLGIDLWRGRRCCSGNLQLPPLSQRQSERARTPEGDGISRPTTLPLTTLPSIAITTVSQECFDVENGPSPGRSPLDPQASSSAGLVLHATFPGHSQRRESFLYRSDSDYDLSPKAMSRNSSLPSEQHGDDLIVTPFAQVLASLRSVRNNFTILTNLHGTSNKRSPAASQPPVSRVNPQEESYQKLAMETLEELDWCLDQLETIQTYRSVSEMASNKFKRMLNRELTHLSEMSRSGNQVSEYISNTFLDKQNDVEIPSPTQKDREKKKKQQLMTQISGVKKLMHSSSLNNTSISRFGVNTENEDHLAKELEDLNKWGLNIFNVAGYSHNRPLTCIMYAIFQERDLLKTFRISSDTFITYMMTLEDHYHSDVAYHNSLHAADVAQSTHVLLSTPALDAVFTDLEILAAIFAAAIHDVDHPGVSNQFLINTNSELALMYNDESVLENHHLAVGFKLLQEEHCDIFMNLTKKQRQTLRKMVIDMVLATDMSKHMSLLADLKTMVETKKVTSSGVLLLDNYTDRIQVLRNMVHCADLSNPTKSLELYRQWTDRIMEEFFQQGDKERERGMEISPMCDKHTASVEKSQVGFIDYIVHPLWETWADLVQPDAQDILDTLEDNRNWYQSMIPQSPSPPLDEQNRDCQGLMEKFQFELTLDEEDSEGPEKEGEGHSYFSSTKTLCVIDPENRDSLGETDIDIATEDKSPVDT

| IC50 [1] | IC50 [2] | Compound |
| --- | --- | --- |
| < 1 nM | < 1 nM | COc1ccc(C2=NN(C3CCN(C(=O)[C@H](Cc4ccncc4)NC(=O)c4c[nH]c5c(-c6c(OCC7CC7)ccc7c6OCO7)ncnc45)CC3)C(=O)[C@@H]3CCCC[C@H]23)cc1OC [Example 41, 4-[5-(cyclopropylmethoxy)-1,3-benzodioxol-4-yl]-N-[(2S)-1-{4-[(4aS,8aR)-4-(3,4-dimethoxyphenyl)-1-oxo-4a,5,6,7,8,8a-hexahydrophthalazin-2(1H)-yl]piperidin-1-yl}-1-oxo-3-(pyridin-4-yl)propan-2-yl]-5H-pyrrolo[3,2-d]pyrimidine-7-carboxamide] |
| < 1 nM | < 1 nM | COc1ccc(C2=NN(C3CCN(C(=O)[C@H](Cc4cccnc4)NC(=O)c4c(C)[nH]c5c(-c6c(OCC7CC7)ccc7c6OCO7)ncnc45)CC3)C(=O)[C@@H]3CCCC[C@H]23)cc1OC [Example 42, 4-[5-(cyclopropylmethoxy)-1,3-benzodioxol-4-yl]-N-[(2S)-1-{4-[(4aS,8aR)-4-(3,4-dimethoxyphenyl)-1-oxo-4a,5,6,7,8,8a-hexahydrophthalazin-2(1H)-yl]piperidin-1-yl}-1-oxo-3-(pyridin-3-yl)propan-2-yl]-6-methyl-5H-pyrrolo[3,2-d]pyrimidine-7-carboxamide] |
| < 1 nM | < 1 nM | COc1ccc(C2=NN(C3CCN(C(=O)[C@H](Cc4cccnc4)NC(=O)c4c[nH]c5c(-c6c(OCC7CC7)ccc7c6OCO7)ncnc45)CC3)C(=O)[C@@H]3CCCC[C@H]23)cc1OC [Example 43, 4-[5-(cyclopropylmethoxy)-1,3-benzodioxol-4-yl]-N-[(2S)-1-{4-[(4aS,8aR)-4-(3,4-dimethoxyphenyl)-1-oxo-4a,5,6,7,8,8a-hexahydrophthalazin-2(1H)-yl]piperidin-1-yl}-1-oxo-3-(pyridin-3-yl)propan-2-yl]-5H-pyrrolo[3,2-d]pyrimidine-7-carboxamide] |
| > 10 nM | 1 to 10 nM | COc1ccc(C2=NN(C3CCN(C(=O)[C@H](Cc4ccccc4)NC(=O)c4c[nH]c5c(-c6c(OCC7CC7)ccc7c6OCO7)ncnc45)CC3)C(=O)[C@H]3CCCC[C@@H]23)cc1OC [Example 44, 4-[5-(cyclopropylmethoxy)-1,3-benzodioxol-4-yl]-N-[(2S)-1-{4-[(4aR,8aS)-4-(3,4-dimethoxyphenyl)-1-oxo-4a,5,6,7,8,8a-hexahydrophthalazin-2(1H)-yl]piperidin-1-yl}-1-oxo-3-phenylpropan-2-yl]-5H-pyrrolo[3,2-d]pyrimidine-7-carboxamide] |
| > 10 nM | 1 to 10 nM | COc1ccc(C2=NN(C3CCN(C(=O)[C@@H](Cc4ccccc4)NC(=O)c4c[nH]c5c(-c6c(OCC7CC7)ccc7c6OCO7)ncnc45)CC3)C(=O)[C@H]3CCCC[C@@H]23)cc1OC [Example 45, 4-[5-(cyclopropylmethoxy)-1,3-benzodioxol-4-yl]-N-[(2R)-1-{4-[(4aR,8aS)-4-(3,4-dimethoxyphenyl)-1-oxo-4a,5,6,7,8,8a-hexahydrophthalazin-2(1H)-yl]piperidin-1-yl}-1-oxo-3-phenylpropan-2-yl]-5H-pyrrolo[3,2-d]pyrimidine-7-carboxamide] |
| 1 to 10 nM | 1 to 10 nM | COc1ccc(C2=NN(C3CCN(C(=O)[C@@H](Cc4ccc(C(C)(C)C)cc4)NC(=O)c4c(C)[nH]c5c(-c6c(OCC7CC7)ccc7c6OCO7)ncnc45)CC3)C(=O)[C@@H]3CCCC[C@H]23)cc1OC [Example 46, N-[(2R)-3-(4-tert-butylphenyl)-1-{4-[(4aS,8aR)-4-(3,4-dimethoxyphenyl)-1-oxo-4a,5,6,7,8,8a-hexahydrophthalazin-2(1H)-yl]piperidin-1-yl}-1-oxopropan-2-yl]-4-[5-(cyclopropylmethoxy)-1,3-benzodioxol-4-yl]-6-methyl-5H-pyrrolo[3,2-d]pyrimidine-7-carboxamide] |
| 1 to 10 nM | 1 to 10 nM | COc1ccc(C2=NN(C3CCN(C(=O)[C@H](Cc4ccc(F)cc4)NC(=O)c4c[nH]c5c(-c6c(OCC7CC7)ccc7c6OCO7)ncnc45)CC3)C(=O)[C@@H]3CCCC[C@H]23)cc1OC [Example 47, 4-[5-(cyclopropylmethoxy)-1,3-benzodioxol-4-yl]-N-[(2S)-1-{4-[(4aS,8aR)-4-(3,4-dimethoxyphenyl)-1-oxo-4a,5,6,7,8,8a-hexahydrophthalazin-2(1H)-yl]piperidin-1-yl}-3-(4-fluorophenyl)-1-oxopropan-2-yl]-5H-pyrrolo[3,2-d]pyrimidine-7-carboxamide] |
| < 1 nM | < 1 nM | COc1ccc(C2=NN(C3CCN(C(=O)[C@@H](Cc4ccc(Cl)cc4Cl)NC(=O)c4c[nH]c5c(-c6c(OCC7CC7)ccc7c6OCO7)ncnc45)CC3)C(=O)[C@@H]3CCCC[C@H]23)cc1OC [Example 48, 4-[5-(cyclopropylmethoxy)-1,3-benzodioxol-4-yl]-N-[(2R)-3-(2,4-dichlorophenyl)-1-{4-[(4aS,8aR)-4-(3,4-dimethoxyphenyl)-1-oxo-4a,5,6,7,8,8a-hexahydrophthalazin-2(1H)-yl]piperidin-1-yl}-1-oxopropan-2-yl]-5H-pyrrolo[3,2-d]pyrimidine-7-carboxamide] |
| 1 to 10 nM | 1 to 10 nM | COc1ccc(C2=NN(C3CCN(C(=O)[C@@H](Cc4ccc(C(F)(F)F)cc4)NC(=O)c4c[nH]c5c(-c6c(OCC7CC7)ccc7c6OCO7)ncnc45)CC3)C(=O)[C@@H]3CCCC[C@H]23)cc1OC [Example 49, 4-[5-(cyclopropylmethoxy)-1,3-benzodioxol-4-yl]-N-{(2R)-1-{4-[(4aS,8aR)-4-(3,4-dimethoxyphenyl)-1-oxo-4a,5,6,7,8,8a-hexahydrophthalazin-2(1H)-yl]piperidin-1-yl}-1-oxo-3-[4-(trifluoromethyl)phenyl]propan-2-yl}-5H-pyrrolo[3,2-d]pyrimidine-7-carboxamide] |
| < 1 nM | 1 to 10 nM | COc1ccc(C2=NN(C3CCN(C(=O)[C@H](NC(=O)c4c[nH]c5c(-c6c(OCC7CC7)ccc7c6OCO7)ncnc45)[C@H](C)c4ccccc4)CC3)C(=O)[C@@H]3CCCC[C@H]23)cc1OC [Example 50, 4-[5-(cyclopropylmethoxy)-1,3-benzodioxol-4-yl]-N-[(2R,3R)-1-{4-[(4aS,8aR)-4-(3,4-dimethoxyphenyl)-1-oxo-4a,5,6,7,8,8a-hexahydrophthalazin-2(1H)-yl]piperidin-1-yl}-1-oxo-3-phenylbutan-2-yl]-5H-pyrrolo[3,2-d]pyrimidine-7-carboxamide] |
| < 1 nM | 1 to 10 nM | COc1ccc(C2=NN(C3CCN(C(=O)[C@H](NC(=O)c4c(C)[nH]c5c(-c6c(OCC7CC7)ccc7c6OCO7)ncnc45)[C@H](C)c4ccccc4)CC3)C(=O)[C@@H]3CCCC[C@H]23)cc1OC [Example 51, 4-[5-(cyclopropylmethoxy)-1,3-benzodioxol-4-yl]-N-[(2R,3R)-1-{4-[(4aS,8aR)-4-(3,4-dimethoxyphenyl)-1-oxo-4a,5,6,7,8,8a-hexahydrophthalazin-2(1H)-yl]piperidin-1-yl}-1-oxo-3-phenylbutan-2-yl]-6-methyl-5H-pyrrolo[3,2-d]pyrimidine-7-carboxamide] |
| < 1 nM | < 1 nM | COc1ccc(C2=NN(C3CCN(C(=O)[C@@H](Cc4ccc(O)cc4)NC(=O)c4c[nH]c5c(-c6c(OCC7CC7)ccc7c6OCO7)ncnc45)CC3)C(=O)[C@@H]3CCCC[C@H]23)cc1OC [Example 52, 4-[5-(cyclopropylmethoxy)-1,3-benzodioxol-4-yl]-N-[(2R)-1-{4-[(4aS,8aR)-4-(3,4-dimethoxyphenyl)-1-oxo-4a,5,6,7,8,8a-hexahydrophthalazin-2(1H)-yl]piperidin-1-yl}-3-(4-hydroxyphenyl)-1-oxopropan-2-yl]-5H-pyrrolo[3,2-d]pyrimidine-7-carboxamide] |
| < 1 nM | 1 to 10 nM | COc1ccc(C2=NN(C3CCN(C(=O)[C@H](Cc4ccc(O)cc4)NC(=O)c4c[nH]c5c(-c6c(OCC7CC7)ccc7c6OCO7)ncnc45)CC3)C(=O)[C@@H]3CCCC[C@H]23)cc1OC [Example 53, 4-[5-(cyclopropylmethoxy)-1,3-benzodioxol-4-yl]-N-[(2S)-1-{4-[(4aS,8aR)-4-(3,4-dimethoxyphenyl)-1-oxo-4a,5,6,7,8,8a-hexahydrophthalazin-2(1H)-yl]piperidin-1-yl}-3-(4-hydroxyphenyl)-1-oxopropan-2-yl]-5H-pyrrolo[3,2-d]pyrimidine-7-carboxamide] |
| 1 to 10 nM | 1 to 10 nM | COc1ccc(C2=NN(C3CCN(C(=O)[C@@H](Cc4ccccc4)NC(=O)c4c[nH]c5c(-c6c(OCC7CC7)ccc7c6OCO7)ncnc45)CC3)C(=O)[C@@H]3CCC[C@H]23)cc1OC [Example 55, 4-[5-(cyclopropylmethoxy)-1,3-benzodioxol-4-yl]-N-[(2R)-1-{4-[(4aS,7aR)-4-(3,4-dimethoxyphenyl)-1-oxo-1,4a,5,6,7,7a-hexahydro-2H-cyclopenta[d]pyridazin-2-yl]piperidin-1-yl}-1-oxo-3-phenylpropan-2-yl]-5H-pyrrolo[3,2-d]pyrimidine-7-carboxamide] |
| < 1 nM | 1 to 10 nM | COc1ccc(C2=NN(C3CCN(C(=O)CNC(=O)c4c[nH]c5c(-c6c(OCC7CC7)ccc7c6OCO7)ncnc45)CC3)C(=O)[C@@H]3CCCC[C@H]23)cc1OC [Example 59, 4-[5-(cyclopropylmethoxy)-1,3-benzodioxol-4-yl]-N-(2-{4-[(4aS,8aR)-4-(3,4-dimethoxyphenyl)-1-oxo-4a,5,6,7,8,8a-hexahydrophthalazin-2(1H)-yl]piperidin-1-yl}-2-oxoethyl)-5H-pyrrolo[3,2-d]pyrimidine-7-carboxamide] |
